Measurements: patent US20070149446A1, “Tamandarin analogs and fragments thereof and methods of making and using” (The Trustees of the University of Pennsylvania Center for …, priority 2003, published 2007)
Where two headings read alike, the source gives them in different places.

Columns and labels:
[1] = from COc1ccc(C[C@@H](C(=O)O[C@H](C)[C@H](NC(=O)OC(C)(C)C)C(=O)O)N(C)C(=O)[C@@H]2CCCN2C(=O)[C@H](CC(C)C)NC(=O)[C@@H](OC(=O)C[C@H](O[Si](C(C)C)(C(C)C)C(C)C)[C@H](N)C(C)C)C(C)C)cc1; amide bond; HATU/DIEA; DMF; 10.0 mM; 25.0 °C; 17.0 h; 3 steps
[2] = amide bond, 21-membered ring, HATU/NMM, CH3CN, 0.0 °C

COc1ccc(C[C@H]2C(=O)O[C@H](C)[C@H](NC(=O)OC(C)(C)C)C(=O)N[C@H](C(C)C)[C@@H](O[Si](C(C)C)(C(C)C)C(C)C)CC(=O)O[C@@H](C(C)C)C(=O)N[C@@H](CC(C)C)C(=O)N3CCC[C@H]3C(=O)N2C)cc1
ring closure, yield of all isomers [1]: 19%

[2-Naphthylala^5]-Tamandarin B macrocycle
ring closure, isolated yield ([2]; 5.0 mM): 65%

[Ala^4]-Tamandarin B macrocycle
ring closure, isolated yield ([2]; 4.6 mM): 60%

[N-Me-Ala^4]-Tamandarin B macrocycle
ring closure, isolated yield ([2]; 4.8 mM): 48%

[Ser^6]-Tamandarin B macrocycle
ring closure, isolated yield ([2]; 5.7 mM): 89%
